# Results published in article PMC6817881, “Antimalarial Quinoline Drugs Inhibit β-Hematin and Increase Free Hemin Catalyzing Peroxidative Reactions and Inhibition of Cysteine Proteases” (Scientific Reports, 2019).
# Residues, ends and D or L forms follow the SMILES beside them. *: point of attachment. AMC = Cc1cc(=O)oc2cc(N*)ccc12; Cbz = O=C(OCc1ccccc1)*
# Legend:
# papain = molecular target: T1, papain (Carica papaya, UniProt P00784); assay: RP-HPLC of released AMC; type: biochemical; settings: pH 4.8 acetate, 37 °C, 100 µM substrate, cysteine; medium also held H2O2, hemin/chloroquine
# T1 construct: native commercial enzyme (Sigma)
# T1 sequence (P00784 134-345): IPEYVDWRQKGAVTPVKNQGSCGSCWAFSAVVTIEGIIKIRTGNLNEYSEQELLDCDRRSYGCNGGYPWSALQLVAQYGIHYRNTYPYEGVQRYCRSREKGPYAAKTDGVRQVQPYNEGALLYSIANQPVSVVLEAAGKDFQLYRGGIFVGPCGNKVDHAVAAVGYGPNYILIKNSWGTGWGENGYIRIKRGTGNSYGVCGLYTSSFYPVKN
# cathepsin B = molecular target: T2, cathepsin B (Bos taurus, UniProt P07688); assay: RP-HPLC of released AMC; type: biochemical; settings: 100 µM substrate, 37 °C, cysteine, globin, H2O2; hemin/chloroquine incubation medium
# T2 construct: gene CTSB; native commercial enzyme from bovine spleen (Sigma)
smiles,measurement,setting,value
Cc1cc(=O)oc2cc(NC(=O)[C@H](CCCNC(=N)N)NC(=O)[C@H](Cc3ccccc3)NC(=O)OCc3ccccc3)ccc12 [Z-Phe-Arg-AMC] (Cbz-Phe-Arg-{AMC}),RP-HPLC of released AMC,papain,"papain, ficin and cathepsin-B using Z-Phe-Arg-AMC peptide"
same,RP-HPLC of released AMC,cathepsin B,"papain, ficin and cathepsin-B using Z-Phe-Arg-AMC peptide"
